What was measured:
Conditions in all cases: Preemergence
sugar beet = assay: Test B pre/postemergence sugar beet; assay type: in vivo, Beta vulgaris
Method in brief: (§1)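 Test chemicals in a non-phytotoxic solvent mixture with surfactant were sprayed preemergence onto planted seeds and postemergence onto plants 2 to 18 cm tall (1- to 4-leaf stage). After twelve to sixteen days in a greenhouse, injury was visually rated against untreated controls from 0 (no effect) to 10 (complete control).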

rape = assay: Test B pre/postemergence rape; assay type: in vivo, Brassica napus
Method in brief: as §1

purple nutsedge = assay: Test B pre/postemergence purple nutsedge; assay type: in vivo, Cyperus rotundus
Method in brief: as §1

surinam grass = assay: Test B pre/postemergence surinam grass; assay type: in vivo, Brachiaria decumbens
Method in brief: as §1

bedstraw = assay: Test B pre/postemergence bedstraw; assay type: in vivo, Galium aparine
Method in brief: as §1

crabgrass = assay: Test B pre/postemergence crabgrass; assay type: in vivo, Digitaria sanguinalis
Method in brief: as §1

cocklebur = assay: Test B pre/postemergence cocklebur; assay type: in vivo, Xanthium strumarium
Method in brief: as §1

soybean = assay: Test B pre/postemergence soybean; assay type: in vivo, Glycine max
Method in brief: as §1

wheat = assay: Test B pre/postemergence wheat; assay type: in vivo, Triticum aestivum
Method in brief: as §1

pigweed = assay: Test B pre/postemergence pigweed; assay type: in vivo, Amaranthus retroflexus
Method in brief: as §1

wild oat = assay: Test B pre/postemergence wild oat; assay type: in vivo, Avena fatua
Method in brief: as §1

corn = assay: Test B pre/postemergence corn; assay type: in vivo, Zea mays
Method in brief: as §1

velvetleaf = assay: Test B pre/postemergence velvetleaf; assay type: in vivo, Abutilon theophrasti
Method in brief: as §1

giant foxtail = assay: Test B pre/postemergence giant foxtail; assay type: in vivo, Setaria faberii
Method in brief: as §1

morningglory = assay: Test B pre/postemergence morningglory; assay type: in vivo, Ipomoea hederacea
Method in brief: as §1

blackgrass = assay: Test B pre/postemergence blackgrass; assay type: in vivo, Alopecurus myosuroides
Method in brief: as §1

[1] = Rate 125 g/ha, scale of 0 to 10 where 0 is no effect and 10 is complete control
[2] = Rate 250 g/ha, scale 0 (no effect) to 10 (complete control)
[3] = Rate 500 g/ha, scale 0 to 10 (0 no effect, 10 complete control)
[4] = Rate 1000 g/ha, scale 0 to 10 (0 no effect, 10 complete control)

For `COC(=O)C(c1ccccc1)n1c(=O)on(C(=O)N(c2ccccc2)C(C)C)c1=O` (stereo not drawn) [Compound 723], the “Plant response rating, Sugarbeets” value (sugar beet; [1]) was 0, the “Sugarbeets plant response rating” value (sugar beet; [2]) was 0 and the “Sugarbeets plant response rating” value (sugar beet; [3]) was 0. For the same molecule, the “Plant response rating, Sugarbeets” value (sugar beet; [4]) was 0, the “Plant response rating, Rape” value (rape; [1]) was 0 and the “Rape plant response rating” value (rape; [2]) was 0. The “Rape plant response rating” value (rape; [3]) was 0, the “Plant response rating, Rape” value (rape; [4]) was 2 and the “Plant response rating, Nutsedge” value (purple nutsedge; [1]) was 0. For the same molecule, the “Nutsedge plant response rating” value (purple nutsedge; [2]) was 0, the “Plant response rating, Nutsedge” value (purple nutsedge; [4]) was 0 and the “Plant response rating, B. signalgrass” value (surinam grass; [1]) was 0. The “B. signalgrass plant response rating” value (surinam grass; [2]) was 2, the “B. signalgrass plant response rating” value (surinam grass; [3]) was 2 and the “Plant response rating, B. signalgrass” value (surinam grass; [4]) was 6. For the same molecule, the “Plant response rating, Bedstraw” value (bedstraw; [1]) was 0, the “Bedstraw plant response rating” value (bedstraw; [2]) was 0 and the “Bedstraw plant response rating” value (bedstraw; [3]) was 0. The “Plant response rating, Bedstraw” value (bedstraw; [4]) was 0, the “Plant response rating, Crabgrass” value (crabgrass; [1]) was 2 and the “Crabgrass plant response rating” value (crabgrass; [2]) was 2. For the same molecule, the “Crabgrass plant response rating” value (crabgrass; [3]) was 9, the “Plant response rating, Crabgrass” value (crabgrass; [4]) was 9 and the “Plant response rating, Cocklebur” value (cocklebur; [1]) was 0. The “Cocklebur plant response rating” value (cocklebur; [2]) was 0, the “Cocklebur plant response rating” value (cocklebur; [3]) was 0 and the “Plant response rating, Cocklebur” value (cocklebur; [4]) was 0. The “Plant response rating, Soybean” value (soybean; [1]) was 0, the “Soybean plant response rating” value (soybean; [2]) was 0 and the “Soybean plant response rating” value (soybean; [3]) was 0. The “Plant response rating, Soybean” value (soybean; [4]) was 0, the “Plant response rating, Wheat” value (wheat; [1]) was 0 and the “Wheat plant response rating” value (wheat; [2]) was 0. The “Wheat plant response rating” value (wheat; [3]) was 0, the “Plant response rating, Wheat” value (wheat; [4]) was 0 and the “Plant response rating, Redroot pigweed” value (pigweed; [1]) was 0. For the same molecule, the “Redroot pigweed plant response rating” value (pigweed; [2]) was 0, the “Redroot pigweed plant response rating” value (pigweed; [3]) was 0 and the “Plant response rating, Redroot pigweed” value (pigweed; [4]) was 5. The “Plant response rating, Wild oats” value (wild oat; [1]) was 0, the “Wild oats plant response rating” value (wild oat; [2]) was 0 and the “Wild oats plant response rating” value (wild oat; [3]) was 0. For the same molecule, the “Plant response rating, Wild oats” value (wild oat; [4]) was 8, the “Plant response rating, Corn” value (corn; [1]) was 0 and the “Corn plant response rating” value (corn; [2]) was 0. The “Corn plant response rating” value (corn; [3]) was 0, the “Plant response rating, Corn” value (corn; [4]) was 0 and the “Plant response rating, Velvetleaf” value (velvetleaf; [1]) was 0. The “Velvetleaf plant response rating” value (velvetleaf; [2]) was 0, the “Velvetleaf plant response rating” value (velvetleaf; [3]) was 0 and the “Plant response rating, Velvetleaf” value (velvetleaf; [4]) was 0. For the same molecule, the “Plant response rating, Giant foxtail” value (giant foxtail; [1]) was 7, the “Giant foxtail plant response rating” value (giant foxtail; [2]) was 9 and the “Giant foxtail plant response rating” value (giant foxtail; [3]) was 10. For the same molecule, the “Plant response rating, Giant foxtail” value (giant foxtail; [4]) was 10, the “Plant response rating, Morningglory” value (morningglory; [1]) was 0 and the “Morningglory plant response rating” value (morningglory; [2]) was 0. The “Morningglory plant response rating” value (morningglory; [3]) was 0, the “Plant response rating, Morningglory” value (morningglory; [4]) was 0 and the “Plant response rating, Blackgrass” value (blackgrass; [1]) was 0. The “Blackgrass plant response rating” value (blackgrass; [2]) was 0, the “Blackgrass plant response rating” value (blackgrass; [3]) was 2 and the “Plant response rating, Blackgrass” value (blackgrass; [4]) was 6.
